According to PubChem BioAssay (NCI):
Values joined by “and” are separate entries in the source; they are usually repeats but may differ in a detail not shown here. Equal entries are not always repeated.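 Following 48 hours of exposure in 96-well plates, responses at five concentrations were used to interpolate endpoints linearly. GI50 marks 50% less growth. TGI: concentration producing complete growth inhibition.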

What was measured:
Assay in all cases: DTP human tumour cell line panel, 48 h
[1] = system: A498 renal
[2] = system: BT-549 breast
[3] = system: EKVX NSCLC
[4] = system: HCT-15 colon
[5] = system: MALME-3M melanoma
[6] = system: MCF7 breast
[7] = system: OVCAR-3 ovarian
[8] = system: PC-3 prostate
[9] = system: SW-620 colon
[10] = system: U251 CNS

SMILES | GI50 [1] | TGI [1] | GI50 [2] [nM] | TGI [2] | GI50 [3] | TGI [3] | GI50 [4] | TGI [4] | GI50 [5] | TGI [5] | GI50 [6] | TGI [6] | GI50 [7] | TGI [7] | GI50 [8] [nM] | TGI [8] | GI50 [9] | TGI [9] | GI50 [10] | TGI [10]
COc1ccc(-n2cc(-c3ccc(F)cc3)[nH]c2=O)cc1OC | > 100 µM | > 100 µM | > 100000 | > 100 µM | > 100000 nM | > 100 µM | > 100000 nM | > 100 µM | > 100000 nM | > 100 µM | > 100000 nM | > 100 µM | > 100000 nM | > 100 µM | > 100000 | > 100 µM | > 100000 nM | > 100 µM | > 100000 nM | > 100 µM
O=c1c(Br)ccc(Br)cc1Br | 14.7 µM | 28.5 µM | 2080 | 3.98 µM | 1710 nM | 3.39 µM | 752 nM | 2.48 µM | 1850 nM | 4.05 µM | 3810 nM | 77.6 µM | 926 nM | 2.18 µM | 1850 | 3.95 µM | 268 nM | 0.673 µM | 1840 nM | 3.34 µM
c1ccc2c(c1)-c1nc3ccccc3cc1C2N1CCOCC1 (configuration not stated) | – | > 100 µM | – | > 100 µM | – | > 100 µM | – | > 100 µM | – | > 100 µM | – | > 100 µM | – | > 100 µM | – | > 100 µM | – | > 100 µM | – | > 100 µM
Nc1ncnc2c1c(-c1ccc(Oc3ccccc3)cc1)nn2C[C@H]1SSC[C@H]1O | 1.84 µM | 4.24 µM | 2180 | 6.52 µM | 309 nM | 1.73 µM | 201 nM | 2.29 µM | 81.5 nM | 0.332 µM | 46.5 nM | 1.2 µM | 188 nM | 0.421 µM | 2050 | 11.8 µM | 395 nM | > 100 µM | 1200 nM | 4.27 µM
O=C(O)c1cccc(F)c1C(=O)c1ccc2ccccc2c1 | – | > 100 µM | – | > 100 µM | – | > 100 µM | – | > 100 µM | – | > 100 µM | – | > 100 µM | – | > 100 µM | – | > 100 µM | – | > 100 µM | – | > 100 µM
CCCCCCOc1ccc(/C=N/Nc2cc(C)nc3ccc(Br)cc23)cc1 | 1.58 µM | 3.09 µM | 1910 | 3.91 µM | 1720 nM | 3.14 µM | 1520 nM | 2.88 µM | 1870 nM | 3.38 µM | 1640 nM | 3.35 µM | 1940 nM | 3.65 µM | 1650 | 3.23 µM | 1560 nM | 3.56 µM | 1870 nM | 3.36 µM
COc1cc(-c2cc(C(=O)N3CCN(C(=O)c4ccccc4NCc4cccs4)CC3)nc3cc(-c4ccccc4)nn23)cc(OC)c1OC | 8.44 µM | > 100 µM | 6260 | > 100 µM | 53900 nM | > 100 µM | 4430 nM | > 100 µM | > 100000 nM | > 100 µM | 2560 nM | > 100 µM | 3030 nM | 11.3 µM | 4180 | > 100 µM | 4700 nM | > 100 µM | 5760 nM | > 100 µM
N=C(N)c1ccc(-c2ccc(-c3ccccc3)o2)o1 | 3.03 µM | 11.7 µM | 4120 | 16 µM | 2340 nM | 9.37 µM | 1160 nM | 4.22 µM | 1750 nM | 3.53 µM | 1680 nM | 5.61 µM | 3130 nM | 11.9 µM | 2640 | 10.1 µM | 1790 nM | 4.2 µM | 2220 nM | 5.12 µM
NC(CSC(c1ccccc1)(c1ccccc1)c1ccc(Br)cc1)C(=O)O (configuration not stated) | 0.259 µM | 32.5 µM | 971 | > 57 µM | 707 nM | > 100 µM | 258 nM | > 82 µM | – | > 88.6 µM | 57.3 nM | > 51.2 µM | 94.2 nM | 0.412 µM | 170 | > 77.7 µM | 100 nM | 27.7 µM | 79.8 nM | 25.5 µM
N[C@@H](Cc1ccc(N(CCCl)CCCl)cc1)C(=O)O | 33.2 µM and 49.3 µM | > 100 µM and > 78.2 µM and 177 µM | 27800 | > 100 µM and 100 µM | 51300 nM and 37500 nM and 52000 nM | > 100 µM and 58.3 µM and 128 µM | 19400 nM and 21000 nM | > 100 µM and 54.9 µM and 133 µM | 13700 nM and 18300 nM | 30.5 µM and 35.3 µM and 66 µM | 5530 nM and 6950 nM | > 100 µM and 50.4 µM and 97.2 µM | 22500 nM and 10400 nM | 55.3 µM and 26.3 µM and 105 µM | 32500 | > 100 µM and 129 µM | 19500 nM and 17200 nM | > 100 µM and 56.8 µM and 157 µM | 16100 nM and 11900 nM | > 100 µM and 31.7 µM and 121 µM
Nc1c(C(=O)Nc2cccc3ccccc23)sc2nc3c(cc12)CCCCCC3 | 2.48 µM | 42.5 µM | 954 | 4.81 µM | 2900 nM | > 50 µM | 772 nM | > 50 µM | > 50000 nM | > 50 µM | 302 nM | > 50 µM | 979 nM | 2.8 µM | 1790 | > 50 µM | 1450 nM | > 50 µM | 1870 nM | > 50 µM
O=c1c(-c2nc3ccccc3[nH]2)cc2ccccc2n1Cc1cn(Cc2ccc(F)cc2)nn1 | 0.127 µM | 0.716 µM | 164 | > 40.5 µM | 799 nM | > 100 µM | 399 nM | > 50.9 µM | 213 nM | 66.4 µM | 32.9 nM | > 55.1 µM | 150 nM | 0.911 µM | 153 | > 100 µM | 67.2 nM | > 100 µM | 161 nM | 12.4 µM
COc1ccc(S(=O)(=O)Nc2c(/C=C\c3cc(OC)c(OC)c(OC)c3)ccc(OC)c2O)cc1OC | 0.0413 µM | 0.291 µM | 256 | – | 452 nM | > 100 µM | 308 nM | > 100 µM | > 100000 nM | > 100 µM | 40.5 nM | > 100 µM | 210 nM | – | 244 | > 100 µM | 167 nM | > 100 µM | 365 nM | > 100 µM
Nc1c2c(c(O)c3c1=C(CO)C=N3)=NCCS2=O (configuration not stated) | 12.2 µM | 25.3 µM | 1690 | 3.1 µM | 2510 nM | 7.51 µM | 2990 nM | 10.6 µM | 253 nM | 0.739 µM | 630 nM | 2.83 µM | 280 nM | 0.986 µM | 2190 | 6.13 µM | 2100 nM | 4.22 µM | 1780 nM | 3.26 µM
COc1ccc2c(C(=O)NCCCCCC(=O)O)cc3cc4c(cc3c2c1)OCO4 | > 100 µM | > 100 µM | 75500 | > 100 µM | > 100000 nM | > 100 µM | > 100000 nM | > 100 µM | > 100000 nM | > 100 µM | > 100000 nM | > 100 µM | > 100000 nM | > 100 µM | > 100000 | > 100 µM | > 100000 nM | > 100 µM | > 100000 nM | > 100 µM
CCc1cc(Cc2cc(CC)cc(C(C)(C)C)c2O)c(O)c(C(C)(C)C)c1 | 1.76 µM | 5.39 µM | 2160 | 7.76 µM | 2240 nM | 6.77 µM | 3130 nM | 11 µM | 1160 nM | 3.48 µM | 2490 nM | 7.74 µM | 2200 nM | 5.33 µM | 3860 | 14.7 µM | 2250 nM | 7.07 µM | 3130 nM | 11 µM
Cc1cnc2n(c1=O)Cc1ccccc1CO2 | 19.5 µM | 45.4 µM | 15500 | 32.8 µM | 20800 nM | 45.1 µM | 17100 nM | 33.8 µM | 19800 nM | 44.9 µM | 10600 nM | 28.1 µM | 16600 nM | 34.3 µM | 18700 | 43.7 µM | 17300 nM | 49 µM | 15700 nM | 29.9 µM
COc1ccc(/C=C/c2cnnc3ccccc23)cc1OC | – | > 10 µM | – | > 10 µM | – | > 10 µM | – | > 10 µM | – | > 10 µM | – | > 10 µM | – | > 10 µM | – | > 10 µM | – | > 10 µM | – | > 10 µM
COC(=O)c1cccc(COc2ccc([N+](=O)[O-])cc2Cl)c1 | – | > 100 µM | – | > 100 µM | – | > 100 µM | – | > 100 µM | – | > 100 µM | – | > 100 µM | – | > 100 µM | – | > 100 µM | – | > 100 µM | – | > 100 µM
Nc1c(S(=O)(=O)O)cc2c(c1Cl)C(=O)c1ccccc1C2=O | > 100 µM | > 100 µM | > 100000 | > 100 µM | > 100000 nM | > 100 µM | > 100000 nM | > 100 µM | > 100000 nM | > 100 µM | > 100000 nM | > 100 µM | > 100000 nM | > 100 µM | > 100000 | > 100 µM | > 100000 nM | > 100 µM | > 100000 nM | > 100 µM
COc1ccc(/C=C2\CCC(CN(C)C)C2=O)cc1 (configuration not stated) | – | 28.9 µM | – | 9.27 µM | – | 37.5 µM | – | 6.49 µM | – | 11.1 µM | – | 6.03 µM | – | 10.6 µM | – | 19.6 µM | – | 4.32 µM | – | 32.7 µM
